The source of these data is ChEMBL document CHEMBL4219097, “Synthesis of 3-aza[4.4.3]propellanes with high σ1 receptor affinity” (Bioorg Med Chem, 2018).

Experiment [1] has as its target Sigma non-opioid intracellular receptor 1 (Cavia porcellus, UniProt Q60492). Kind of experiment: Displacement of [3H]-(+)-pentazocine from sigma1 receptor in guinea pig brain cortex membranes measured after 120 mins by scintillation counting method. The class given is cell membranes. A general note: In a radioligand displacement assay an active substance lowers the binding of a labelled ligand.

Experiment [2] deals with T1, Sigma intracellular receptor 2 (Rattus norvegicus, UniProt Q5U3Y7).
T1 sequence (Q5U3Y7 whole entry): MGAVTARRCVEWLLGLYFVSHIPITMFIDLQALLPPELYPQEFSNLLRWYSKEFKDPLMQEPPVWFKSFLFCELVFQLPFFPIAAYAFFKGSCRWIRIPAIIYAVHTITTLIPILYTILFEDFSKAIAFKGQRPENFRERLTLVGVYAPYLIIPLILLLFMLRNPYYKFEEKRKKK
The experiment is described as follows: Displacement of [3H]DTG from sigma 2 receptor in rat liver membranes measured after 120 mins by scintillation counting method. Format: cell membranes, Membrane.

Experiment [3] can be described thus: Selectivity ratio of Ki for displacement of [3H]DTG from sigma 2 receptor in rat liver membranes to Ki for displacement of [3H]-(+)-pentazocine from sigma1 receptor in guinea pig brain cortex membranes. Format: cell membranes.
Experiment [4] concerns the target T2, Sigma intracellular receptor 2 (Rattus norvegicus) (UniProt Q5U3Y7).
T2 sequence (whole entry): T1 sequence (Q5U3Y7 whole entry)
The experiment is described as follows: Displacement of [3H]DTG from sigma 2 receptor in rat liver membranes at 1 uM measured after 120 mins by scintillation counting method. Format: cell membranes. The conditions noted are these: Membrane.

In experiment [5] the target is Sigma non-opioid intracellular receptor 1 (Cavia porcellus) (UniProt Q60492). The experiment is described as follows: Displacement of [3H]-(+)-pentazocine from sigma1 receptor in guinea pig brain cortex membranes at 1 uM measured after 120 mins by scintillation counting method. Format: cell membranes.
Chain of Sigma non-opioid intracellular receptor 1 (Cavia porcellus) (Q60492 whole entry): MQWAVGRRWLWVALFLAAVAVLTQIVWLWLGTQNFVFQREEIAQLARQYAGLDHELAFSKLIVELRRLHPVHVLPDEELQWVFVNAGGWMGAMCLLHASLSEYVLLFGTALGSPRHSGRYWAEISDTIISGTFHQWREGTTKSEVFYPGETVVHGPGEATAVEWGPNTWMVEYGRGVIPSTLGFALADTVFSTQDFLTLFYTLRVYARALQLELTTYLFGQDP

Chain of Sigma non-opioid intracellular receptor 1 (Q60492 whole entry): as above

Consider `c1ccc(CN2CCC34CCCCC3(CCC4)C2)cc1` (racemic), for which the Ki amounted to 0.017 µM in experiment [1] and 0.19 µM in experiment [2]. Besides, the Ratio Ki in experiment [3] was 11.

Consider `OC1CC23CCCCC2(C1)CN(Cc1ccccc1)CC3` (racemic; anti) [listing 1 of 2 here], for which the Ki in experiment [1] was 0.122 µM; in experiment [2] it was 2.04 µM.

With `COc1ccc(C)cc1NC(=O)OC1CC23CCCCC2(C1)CN(Cc1ccccc1)CC3` (racemic; anti) [listing 1 of 2 here], the Ki in experiment [1] came to 0.082 µM. This lies in the double-digit nanomolar range.

`COc1ccc(C)cc1NC(=O)OC1CC23CCCCC2(C1)CN(Cc1ccccc1)CC3` (racemic; anti) [listing 2 of 2 here]: the inhibition in experiment [4] was found to be 8%. For the same compound, the Ratio Ki in experiment [3] was over 12.

For `OC1CC23CCCCC2(C1)CN(Cc1ccccc1)CC3` (racemic; anti) [listing 2 of 2 here], the Ratio Ki in experiment [3] came out at 17.

As for `OC1CC23CCCCC2(C1)CN(Cc1ccccc1)CC3` (racemic; syn) [listing 1 of 2 here], the Ki in experiment [1] is 0.336 µM; in experiment [2], 0.69 µM.

Turning to `COc1ccc(C)cc1NC(=O)OC1CC23CCCCC2(C1)CN(Cc1ccccc1)CC3` (racemic; syn), the values for the inhibition in experiment [5] and in experiment [4] were 12% and 0%, respectively.

On to `OC1CC23CCCCC2(C1)CN(Cc1ccccc1)CC3` (racemic; syn) [listing 2 of 2 here], for which the Ratio Ki in experiment [3] came to 2.

One may read the Ki as a dissociation constant, usually derived from enzyme kinetics or from competition with a known ligand. Read a high Ki as weaker binding. For orientation: inhibition means the percentage by which the read-out fell short of the control. High values mean a strong effect, low ones a weak effect.
